Measurements reported in article PMC3372491, “Application of Consensus Scoring and Principal Component Analysis for Virtual Screening against β-Secretase (BACE-1)” (PLoS ONE, 2012).
pIC50: −log10 of the molar value.

Molecular target: T1, β-secretase (BACE-1) (Homo sapiens, UniProt P56817)
T1 construct: gene BACE1
Experiment: BACE-1 FRET enzymatic assay
Format: biochemical

T1 sequence (P56817 46-457): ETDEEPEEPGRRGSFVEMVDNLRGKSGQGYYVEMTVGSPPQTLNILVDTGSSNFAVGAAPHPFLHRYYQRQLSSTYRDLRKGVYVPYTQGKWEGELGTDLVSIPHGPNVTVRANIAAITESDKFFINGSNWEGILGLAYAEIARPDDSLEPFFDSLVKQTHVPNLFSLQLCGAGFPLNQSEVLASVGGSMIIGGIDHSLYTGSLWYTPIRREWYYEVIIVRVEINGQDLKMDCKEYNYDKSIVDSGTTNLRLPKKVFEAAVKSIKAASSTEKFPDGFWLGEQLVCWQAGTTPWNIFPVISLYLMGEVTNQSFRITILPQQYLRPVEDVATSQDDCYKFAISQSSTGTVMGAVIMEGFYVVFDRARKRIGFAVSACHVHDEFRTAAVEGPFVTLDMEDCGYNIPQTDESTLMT

SMILES | pIC50
N[C@@H](CCCCNC(=O)OCc1ccccc1)C(=O)OCc1ccccc1 [compound 1, S450588] | 4.29
O=C(NCc1ccccc1)[C@@H](O)[C@H](O)C(=O)NCc1ccccc1 [compound 2, 276065] | 4.07
